# ChEMBL document CHEMBL5052821, “Galactokinase inhibitors for the treatment and prevention of associated diseases and disorders” (2019)
# The source made the active and inactive calls. No rule for the calls is given here.
# Test system: Bacteria
# Assay: Inhibition of bacterial CDP-ME kinase assessed as ATP depletion up to 57 uM measured by bioluminescent kinase Glo assay
# Conditions: dose microM <=57
row,SMILES,inhibition
1,CC1=C(C(=O)Nc2nncs2)C2(CCCC2)N=C(Nc2nc3ccccc3o2)N1,inactive
2,O=C1CCCC2=C1C1(CCCC1)N=C(Nc1nc3cc4ccccc4cc3o1)N2,inactive
3,CC1=C(C(=O)Nc2nc3ccccc3o2)C2(CCCC2)N=C(Nc2nc3ccccc3o2)N1,inactive
4,CC1(C)CC(=O)C2=C(C1)NC(Nc1nc3ccccc3o1)=NC21CCCC1,inactive
5,CNC(=O)C1=C(C)NC(Nc2nc3ccccc3o2)=NC1c1nn(C)cc1Cl (stereo not given),inactive
6,CNC(=O)C1=C(C)NC(Nc2nc3ccccc3o2)=NC1c1n[nH]cc1Cl (stereo not given),inactive
7,CC1=C(C(=O)Nc2nncs2)C(c2ccccc2Br)N=C(Nc2nc3ccccc3o2)N1 (stereo not given),inactive
8,CC1=C(C(=O)Nc2nc3ccccc3s2)C(c2nn(C)cc2Cl)N=C(Nc2nc3ccccc3o2)N1 (stereo not given),inactive
9,CC1=C(C(=O)Nc2nnc(-c3ccccc3)s2)C(c2n[nH]cc2Cl)N=C(Nc2nc3ccccc3o2)N1 (stereo not given),inactive
10,O=C1CCCC2=C1C1(CCCC1)N=C(Nc1nc3ccccc3n1Cc1ccccc1)N2,inactive
11,O=C1CCCC2=C1C1(CCCC1)N=C(Nc1nc3cc(Cl)ccc3o1)N2,inactive
12,CC1=C(C(=O)Nc2nccs2)C(c2ccccc2Br)N=C(Nc2nc3ccccc3o2)N1 (stereo not given),inactive
13,CC1=C(C(=O)Nc2nc3ccccc3s2)C(c2n[nH]cc2Cl)N=C(Nc2nc3ccccc3o2)N1 (stereo not given),inactive
14,O=C1CCCC2=C1C1(CCCC1)N=C(Nc1nc3cc(Br)ccc3o1)N2,inactive
15,CC1(C)CC(=O)C2=C(C1)NC(Nc1nc3ccccc3o1)=NC21CCCCC1,inactive
16,CC1=C(C(=O)N(C)c2ccccc2C)C(c2ccccc2Br)N=C(Nc2nc3ccccc3o2)N1 (stereo not given),inactive
17,CC1=C(C(=O)NC2CCCC2)C(c2n[nH]cc2Cl)N=C(Nc2nc3ccccc3o2)N1 (stereo not given),inactive
18,Cc1ccc2oc(NC3=NC4(CCCC4)C4=C(CCCC4=O)N3)nc2c1,inactive
19,CC1=C(C(=O)Nc2ccccc2C)C(c2ccccc2Br)N=C(Nc2nc3ccccc3o2)N1 (stereo not given),inactive

row,SMILES,inhibition
1,CC1=C(C(=O)Nc2ccc(C)cc2)C(c2ccccc2Br)N=C(Nc2nc3ccccc3o2)N1 (stereo not given),inactive
2,Cc1ccc2nc(NC3=NC4(CCCC4)C4=C(CCCC4=O)N3)oc2c1,inactive
3,CC1=C(C(=O)Nc2ccon2)C(c2nn(C)cc2Cl)N=C(Nc2nc3ccccc3o2)N1 (stereo not given),inactive
4,CC1=C(C(=O)Nc2ccon2)C2(CCCC2)N=C(Nc2nc3ccccc3o2)N1,inactive
5,CC1=C(C(=O)Nc2ccc(Cl)cc2)C(c2ccccc2Br)N=C(Nc2nc3ccccc3o2)N1 (stereo not given),inactive
6,CC1=C(C(=O)NC2CC2)C(c2nn(C)cc2Cl)N=C(Nc2nc3ccccc3o2)N1 (stereo not given),inactive
7,COc1ccccc1NC(=O)C1=C(C)NC(Nc2nc3ccccc3o2)=NC1c1ccccc1Br (stereo not given),inactive
8,CC1=C(C(=O)Nc2noc3ccccc23)C(c2nn(C)cc2Cl)N=C(Nc2nc3ccccc3o2)N1 (stereo not given),inactive
9,CC1=C(C(=O)Nc2ccon2)C(c2ccccc2Br)N=C(Nc2nc3ccccc3o2)N1 (stereo not given),inactive
10,CC1=C(C(=O)Nc2nncs2)C(c2nn(C)cc2Cl)N=C(Nc2nc3ccccc3o2)N1 (stereo not given),inactive
11,CC1=C(C(=O)Nc2nc3ccccc3s2)C2(CCCC2)N=C(Nc2nc3ccccc3o2)N1,inactive
12,CC1=C(C(=O)NC2CC2)C(c2n[nH]cc2Cl)N=C(Nc2nc3ccccc3o2)N1 (stereo not given),inactive
13,CC1=C(C(=O)n2ccc3ccccc32)C(c2ccccc2Br)N=C(Nc2nc3ccccc3o2)N1 (stereo not given),inactive
14,Cn1c(NC2=NC3(CCCC3)C3=C(CCCC3=O)N2)nc2ccccc21,inactive
15,CC1=C(C(=O)NCc2ccccc2)C(c2ccccc2Br)N=C(Nc2nc3ccccc3o2)N1 (stereo not given),inactive
16,CC1=C(C(=O)Nc2ccccc2)C(c2ccccc2Br)N=C(Nc2nc3ccccc3o2)N1 (stereo not given),inactive
17,CNC(=O)C1=C(C)NC(Nc2nc3ccccc3o2)=NC12CCCC2,inactive
18,COc1ccc(NC(=O)C2=C(C)NC(Nc3nc4ccccc4o3)=NC2c2ccccc2Br)cc1 (stereo not given),inactive

# The remaining lines, values ahead:
row,inhibition,SMILES
1,inactive,O=C1CCCC2=C1C1(CCCC1)N=C(Nc1nc3cc(-c4ccccc4)ccc3o1)N2
2,inactive,O=C1CCCC2=C1C(c1ccccc1I)N=C(Nc1nc3ccccc3o1)N2 (stereo not given)
3,inactive,O=C1CCCC2=C1C(c1ccn[nH]1)N=C(Nc1nc3ccccc3o1)N2 (stereo not given)
4,inactive,O=C1CC(c2ccccc2)CC2=C1C1(CCCCC1)N=C(Nc1nc3ccccc3o1)N2 (stereo not given)
5,inactive,O=C1CCCC2=C1C1(CCSCC1)N=C(Nc1nc3ccccc3o1)N2
6,inactive,O=C1CCCC2=C1C(c1c(Cl)cccc1Cl)N=C(Nc1nc3ccccc3o1)N2 (stereo not given)
7,inactive,O=C1CCCC2=C1C(c1n[nH]cc1Br)N=C(Nc1nc3ccccc3o1)N2 (stereo not given)
8,inactive,O=C1CCCC2=C1C1(CCS(=O)(=O)C1)N=C(Nc1nc3ccccc3o1)N2 (stereo not given)
9,inactive,O=C1CCCC2=C1C(c1cnccc1C(F)(F)F)N=C(Nc1nc3ccccc3o1)N2 (stereo not given)
10,inactive,O=C1CCCC2=C1C(c1cccc(F)c1)N=C(Nc1nc3ccccc3o1)N2 (stereo not given)
11,inactive,Cc1ccc(C2N=C(Nc3nc4ccccc4o3)NC3=C2C(=O)CCC3)s1 (stereo not given)
12,inactive,O=C1CCCC2=C1C(c1ncccc1C(F)(F)F)N=C(Nc1nc3ccccc3o1)N2 (stereo not given)
13,inactive,O=C1CCCC2=C1C(c1cccnc1Br)N=C(Nc1nc3ccccc3o1)N2 (stereo not given)
14,inactive,O=C1CCCC2=C1C(c1cccc(C(F)(F)F)c1)N=C(Nc1nc3ccccc3o1)N2 (stereo not given)
15,inactive,O=C1CCCC2=C1C(c1ccncc1Cl)N=C(Nc1nc3ccccc3o1)N2 (stereo not given)
16,inactive,Cc1cccc(C2N=C(Nc3nc4ccccc4o3)NC3=C2C(=O)CCC3)c1 (stereo not given)
17,inactive,O=C1CCCC2=C1C(c1ccc(Cl)cc1)N=C(Nc1nc3ccccc3o1)N2 (stereo not given)
18,inactive,Cc1ccc(C2N=C(Nc3nc4ccccc4o3)NC3=C2C(=O)CCC3)cc1 (stereo not given)
19,inactive,O=C1CCCC2=C1C(c1cccnc1)N=C(Nc1nc3ccccc3o1)N2 (stereo not given)
20,inactive,Cn1ncc(Cl)c1C1N=C(Nc2nc3ccccc3o2)NC2=C1C(=O)CCC2 (stereo not given)
21,inactive,O=C1CCCC2=C1C1(CCC1)N=C(Nc1nc3ccccc3o1)N2
22,inactive,O=C1CCCC2=C1C(c1ccccc1Br)N=C(Nc1nc3ccccc3o1)N2 (stereo not given)
23,inactive,O=C1CCCC2=C1C(c1ccncc1Br)N=C(Nc1nc3ccccc3o1)N2 (stereo not given)
24,inactive,COc1ccccc1C1N=C(Nc2nc3ccccc3o2)NC2=C1C(=O)CCC2 (stereo not given)
25,inactive,O=C1CC(c2ccccc2)CC2=C1C1(CCCC1)N=C(Nc1nc3ccccc3o1)N2 (stereo not given)
26,inactive,O=C1CCCC2=C1C(c1ccccc1C(F)(F)F)N=C(Nc1nc3ccccc3o1)N2 (stereo not given)

row,inhibition,SMILES
1,inactive,CCC1CCC2(C1)N=C(Nc1nc3ccccc3o1)NC1=C2C(=O)CCC1 (stereo not given)
2,inactive,O=C1CCCC2=C1C(c1ccc(F)cc1)N=C(Nc1nc3ccccc3o1)N2 (stereo not given)
3,inactive,CN(C)c1ccc(C2N=C(Nc3nc4ccccc4o3)NC3=C2C(=O)CCC3)cc1 (stereo not given)
4,inactive,O=C1CCCC2=C1C(c1n[nH]cc1Cl)NC(Nc1nc3ccccc3o1)=N2 (stereo not given)
5,inactive,O=C1CCC2=C1C(c1ccccc1Cl)N=C(Nc1nc3ccccc3o1)N2 (stereo not given)
6,inactive,O=C1CCCC2=C1C(c1ccccc1)N=C(Nc1nc3ccccc3o1)N2 (stereo not given)
7,inactive,O=C1CCCC2=C1C(c1cccc(Cl)c1)N=C(Nc1nc3ccccc3o1)N2 (stereo not given)
8,inactive,Cc1ccsc1C1N=C(Nc2nc3ccccc3o2)NC2=C1C(=O)CCC2 (stereo not given)
9,inactive,O=C1CCC2=C1C1(CCCC1)N=C(Nc1nc3ccccc3o1)N2
10,inactive,O=C1CCCC2=C1C1(CCCOC1)N=C(Nc1nc3ccccc3o1)N2 (stereo not given)
11,inactive,CC1(C)N=C(Nc2nc3ccccc3o2)NC2=C1C(=O)CCC2
12,inactive,O=C1CCCC2=C1C(c1cccnc1Cl)N=C(Nc1nc3ccccc3o1)N2 (stereo not given)
13,inactive,CC1=C(C(=O)NC2CCCCC2)C(c2ccccc2Br)N=C(Nc2nc3ccccc3o2)N1 (stereo not given)
14,inactive,O=C1CCCC2=C1C1(CCCC1)N=C(Nc1nc3ccccc3o1)N2
15,inactive,O=C1CCCC2=C1C1(CCSC1)N=C(Nc1nc3ccccc3o1)N2 (stereo not given)
16,inactive,O=C1CCCC2=C1C(c1ncccc1Br)N=C(Nc1nc3ccccc3o1)N2 (stereo not given)
17,inactive,COc1cccc(C2N=C(Nc3nc4ccccc4o3)NC3=C2C(=O)CCC3)c1 (stereo not given)
18,inactive,Cn1cc(Br)c(C2N=C(Nc3nc4ccccc4o3)NC3=C2C(=O)CCC3)n1 (stereo not given)
19,inactive,O=C1CCCC2=C1C(c1ccccc1Cl)N=C(Nc1nc3ccccc3o1)N2 (stereo not given)
20,inactive,CC1=C(C(=O)N(C)C)C(c2ccccc2Br)N=C(Nc2nc3ccccc3o2)N1 (stereo not given)
21,inactive,O=C1CCCC2=C1[C@@]1(CCC(c3ccccc3)C1)N=C(Nc1nc3ccccc3o1)N2 (stereo not given in full)
22,inactive,COc1ccc(C2N=C(Nc3nc4ccccc4o3)NC3=C2C(=O)CCC3)cc1 (stereo not given)
23,inactive,Cc1cc(C2N=C(Nc3nc4ccccc4o3)NC3=C2C(=O)CCC3)n[nH]1 (stereo not given)
24,inactive,CC1CCC2(C1)N=C(Nc1nc3ccccc3o1)NC1=C2C(=O)CCC1 (stereo not given)
25,inactive,O=C1CCCC2=C1C1(CCOCC1)N=C(Nc1nc3ccccc3o1)N2
26,inactive,O=C1CCCC2=C1C(c1ccncc1)N=C(Nc1nc3ccccc3o1)N2 (stereo not given)

# Test system: HEK293
# Assay: Cytotoxicity against human HEK293 cells measured after 48 hrs by Cell Titer Glo assay
# Format: toxicity, cell-based
# Conditions: hek293, 48 h
row,SMILES,Activity
1,O=C1CC(c2ccccc2)CC2=C1C1(CCCCC1)N=C(Nc1nc3ccccc3o1)N2 (stereo not given),Non-Toxic
2,O=C1CCCC2=C1C1(CCCC1)N=C(Nc1nc3cc4ccccc4cc3o1)N2,Non-Toxic
3,CC1(C)CC(=O)C2=C(C1)NC(Nc1nc3ccccc3o1)=NC21CCCC1,Non-Toxic
4,O=C1CCCC2=C1C1(CCCC1)N=C(Nc1nc3cc(Cl)ccc3o1)N2,Non-Toxic
5,O=C1CCCC2=C1C1(CCC1)N=C(Nc1nc3ccccc3o1)N2,Non-Toxic
6,O=C1CCCC2=C1C1(CCCC1)N=C(Nc1nc3cc(Br)ccc3o1)N2,Non-Toxic
7,Cc1ccc2oc(NC3=NC4(CCCC4)C4=C(CCCC4=O)N3)nc2c1,Non-Toxic
8,Cc1ccc2nc(NC3=NC4(CCCC4)C4=C(CCCC4=O)N3)oc2c1,Non-Toxic
9,O=C1CCC2=C1C1(CCCC1)N=C(Nc1nc3ccccc3o1)N2,Non-Toxic
10,O=C1CCCC2=C1C1(CCCC1)N=C(Nc1nc3ccccc3o1)N2,Non-Toxic
11,Cn1c(NC2=NC3(CCCC3)C3=C(CCCC3=O)N2)nc2ccccc21,Non-Toxic
